Source: BindingDB's records for doi:10.1021/acs.biochem.5b01128 (University College London, 2016)

Assays:
Assay in all cases: Kinase Inhibition Assay
[1] = target: Dual specificity protein kinase CLK3 (Homo sapiens, UniProt P49761)
[2] = target: Dual specificity tyrosine-phosphorylation-regulated kinase 1A (Homo sapiens, UniProt Q13627)
[3] = target: Dual specificity protein kinase CLK1 (Homo sapiens, UniProt P49759)
[4] = target: Dual specificity protein kinase CLK2 (Homo sapiens, UniProt P49760)
Chain of Dual specificity protein kinase CLK2 (P49760 whole entry): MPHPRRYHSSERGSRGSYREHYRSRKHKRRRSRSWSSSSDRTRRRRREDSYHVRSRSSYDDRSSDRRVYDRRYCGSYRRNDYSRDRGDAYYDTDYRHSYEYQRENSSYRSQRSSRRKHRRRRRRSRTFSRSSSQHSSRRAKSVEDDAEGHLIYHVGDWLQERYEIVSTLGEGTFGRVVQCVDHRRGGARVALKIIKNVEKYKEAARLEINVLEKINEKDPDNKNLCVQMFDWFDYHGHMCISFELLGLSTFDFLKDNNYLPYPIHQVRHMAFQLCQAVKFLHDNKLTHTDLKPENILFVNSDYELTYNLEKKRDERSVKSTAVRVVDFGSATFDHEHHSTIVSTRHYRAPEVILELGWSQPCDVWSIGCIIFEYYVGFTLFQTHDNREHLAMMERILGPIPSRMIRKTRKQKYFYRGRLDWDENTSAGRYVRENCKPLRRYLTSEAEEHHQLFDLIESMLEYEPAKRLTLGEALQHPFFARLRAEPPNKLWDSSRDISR

Chain of Dual specificity protein kinase CLK3 (P49761 as listed by the source): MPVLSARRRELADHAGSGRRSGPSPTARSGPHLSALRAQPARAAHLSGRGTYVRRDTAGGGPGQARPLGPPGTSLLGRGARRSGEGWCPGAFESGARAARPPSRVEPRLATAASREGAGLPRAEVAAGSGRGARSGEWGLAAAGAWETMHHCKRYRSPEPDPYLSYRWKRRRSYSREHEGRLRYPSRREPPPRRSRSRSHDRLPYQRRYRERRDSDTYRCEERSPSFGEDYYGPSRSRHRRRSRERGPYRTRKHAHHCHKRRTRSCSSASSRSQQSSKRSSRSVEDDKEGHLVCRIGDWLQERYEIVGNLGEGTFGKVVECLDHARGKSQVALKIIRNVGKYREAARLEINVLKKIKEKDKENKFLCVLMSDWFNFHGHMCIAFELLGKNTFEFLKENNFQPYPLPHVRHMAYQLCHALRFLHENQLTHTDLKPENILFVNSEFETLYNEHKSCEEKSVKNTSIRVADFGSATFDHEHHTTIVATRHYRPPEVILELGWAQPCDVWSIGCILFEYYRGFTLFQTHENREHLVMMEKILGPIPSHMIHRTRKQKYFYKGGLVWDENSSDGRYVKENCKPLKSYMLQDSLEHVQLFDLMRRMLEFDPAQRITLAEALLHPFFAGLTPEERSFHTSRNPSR
Chain of Dual specificity protein kinase CLK1 (P49759 whole entry): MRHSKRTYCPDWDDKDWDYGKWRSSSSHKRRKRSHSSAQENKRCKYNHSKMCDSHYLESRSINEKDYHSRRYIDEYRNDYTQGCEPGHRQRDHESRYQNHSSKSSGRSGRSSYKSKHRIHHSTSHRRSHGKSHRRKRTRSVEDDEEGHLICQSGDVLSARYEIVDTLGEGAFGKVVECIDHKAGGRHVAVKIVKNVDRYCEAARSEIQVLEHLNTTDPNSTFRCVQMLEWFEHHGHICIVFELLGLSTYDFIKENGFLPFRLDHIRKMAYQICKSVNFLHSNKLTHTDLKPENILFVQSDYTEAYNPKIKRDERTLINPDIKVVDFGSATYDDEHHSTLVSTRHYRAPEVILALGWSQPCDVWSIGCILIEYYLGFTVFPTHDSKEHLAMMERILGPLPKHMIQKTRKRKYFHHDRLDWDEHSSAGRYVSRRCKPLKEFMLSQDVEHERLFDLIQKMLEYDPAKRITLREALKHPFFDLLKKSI

IC50 [1] | IC50 [2] | IC50 [3] | IC50 [4] | Compound
346 nM | 260 nM | 51 nM | 68 nM | Cc1nc2ccc3sc(NC(=O)c4ccc5ncsc5c4)nc3c2s1 [3A5]
> 3000 nM | 334 nM | 277 nM | 174 nM | CSc1nc2ccc3nc(NC(=O)c4ccco4)sc3c2s1 [5E4]
> 3000 nM | 213 nM | 273 nM | 127 nM | CSc1nc2ccc3nc(NC(=O)c4ccc(S(=O)(=O)N5CCOCC5)cc4)sc3c2s1 [5F4]
> 3000 nM | – | 390 nM | 553 nM | O=C1N=C(NCc2cccs2)S/C1=C/c1ccc2ncccc2c1 [NR9]
